Source: patent US9526699B2, “Biodegradable and thermosensitive poly(organophosphazene) hydrogel, preparation method thereof and use thereof” (KIST, priority 2006, dated 2016)

Legend:
[1] = test system: Cells of stomach cancer, SNU-601; test: In vivo anti-cancer activity of the poly(organophosphazene) hydrogel containing paclitaxel; set-up: species or system nude mouse; settings: 60 mg/kg, day 10 after administration, ten mice per group
Experimental: A nude mouse (OrientalBio, Balb/C, female of 5-weeks old, 20 g) was used as an animal model for animal experimentation for an in vivo test. Cells of stomach cancer, SNU-601 (1×10^7 cells, 0.2 ml, Korean Cell Line Bank), were injected into the dorsum of the mouse. […] 0.2 ml of the solution was injected into the cancer cells, and the change in the size of the cells was measured.
Each test was conducted for ten (10) mice for each of the control groups and the experimental groups.

[2] = biological target: T1, albumin (Bovin Serum Albumin; BSA) (Bos taurus, UniProt P02769); test: Gel electrophoresis for ionic bond between additives and protein drug; type: binding; settings: additive at various concentrations in 0.01% albumin solution
T1 construct: purchased Wako chemical
T1 sequence (P02769 25-607): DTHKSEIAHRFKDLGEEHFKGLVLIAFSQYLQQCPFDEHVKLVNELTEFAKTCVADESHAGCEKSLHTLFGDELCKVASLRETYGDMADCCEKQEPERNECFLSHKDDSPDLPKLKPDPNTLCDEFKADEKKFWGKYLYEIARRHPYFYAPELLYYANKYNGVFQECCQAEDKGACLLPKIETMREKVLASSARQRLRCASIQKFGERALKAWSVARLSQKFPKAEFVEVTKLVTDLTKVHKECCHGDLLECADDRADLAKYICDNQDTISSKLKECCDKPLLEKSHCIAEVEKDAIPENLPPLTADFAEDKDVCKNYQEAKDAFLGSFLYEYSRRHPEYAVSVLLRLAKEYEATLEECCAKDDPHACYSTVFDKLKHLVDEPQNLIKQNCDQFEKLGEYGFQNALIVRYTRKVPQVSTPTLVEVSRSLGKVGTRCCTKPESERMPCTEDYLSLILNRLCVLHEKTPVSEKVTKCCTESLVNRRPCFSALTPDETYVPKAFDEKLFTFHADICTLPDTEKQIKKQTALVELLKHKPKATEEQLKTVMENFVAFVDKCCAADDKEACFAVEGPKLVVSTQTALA
Experimental: Each of them was added to 0.01% albumin solution (Bovin Serum Albumin; BSA, Wako chemical) at various concentrations and sufficiently stirred. After holding for 20 minutes, an electrophoresis for each of the obtained solutions was conducted through polyacrylamide gel.

Compound | mice died due to toxicity [1] | development property in polyacrylamide gel (ionic bond with albumin) [2]
CC(=O)O[C@H]1C(=O)[C@@]2(C)[C@H]([C@H](OC(=O)c3ccccc3)[C@]3(O)C[C@H](OC(=O)[C@H](O)[C@@H](NC(=O)c4ccccc4)c4ccccc4)C(C)=C1C3(C)C)[C@]1(OC(C)=O)CO[C@@H]1C[C@@H]2O [Paclitaxel, paclitaxel] | 8 mice | –
protamine | – | worse development property of the gel as the concentration of the additive is higher
